Literature values, collected in patent US20190105343A1, “Treatment of Skin Conditions and Diseases Associated with Microbial Biofilms” (Bioclenz PH LLC, priority 2016, published 2019).
≈ marks a conversion by molar mass, not a printed value.

Legend:
[1] = aqueous solutions at 37° C.
[2] = system: aerobic and anaerobic gram-positive bacteria; conditions: broth and biofilm cultures
Pseudomonas aeruginosa = conditions: pH 5.0-6.0

CCCCCCCCCCCC(=O)OCC(O)CO (stereo not shown) [GML, glycerol monolaurate]
solubility limit [1]: 0.1 mg/mL (≈ 364 µM)
bactericidal activity [2]: bactericidal
killing (Pseudomonas aeruginosa): killed
susceptibility (Gram-negative anaerobes): susceptible
